This is an account of results in patent US20260273004A1, “AGENT AND METHOD FOR MAINTAINING OR IMPROVING CEREBRAL FUNCTION USING CRUDE DRUG” (CEREBRO PHARMA INC., priority 2023, published 2026).

Test [1] concerns mouse models of AD and PD. The following applies: oral administration, Non-Patent Literature 18, 19; cited from earlier work.
Test [2] has as its system BDNF and nerve growth factor (NGF). The following applies: oral administration; rat model of cerebral ischemia/reperfusion; Non-Patent Literature 20; cited from earlier work.
Test [3] has as its system Tau784 mice. Nature of the test: Morris water maze test in Tau784 mice. The format is in vivo, mouse. The conditions noted are these: Tau784 mice aged 8-10 months; orally, one month; mixture of catechin 0.087 μg, chlorogenic acid 0.036 μg, rutin 0.123 μg, or catechin alone 0.087 μg; FIG. 24. The text has this: The Tau784 mice are FTD models that express both three-repeat and four-repeat human tau at an adult age (with four-repeat human tau being dominantly expressed) due to the presence of a tau intron mutation (Non-Patent Literature 25: Umeda et al., Am. J. Pathol., (2013), 183[1]:211-25; and Non-Patent Literature 26: Umeda et al., Ann. Clin. Transl. Neurol., (2015), 2[3]:241-55).
To investigate the effect of mãmaki leaf hot water extract, the extract powder was suspended in water at concentrations of 3.33, 0.33, and 0.10 mg/mL by sonication. 300 μL of each suspension (containing 1,000, 100, and 30 μg of powder) was orally administered to male and female Tau784 mice five days a week (Monday to Friday) for one month. As a control, the same amount of water was administered to age-matched Tg and non-Tg littermates. For APP23, Huα-Syn (A53T), and C9-500 mice, a 0.33 mg/mL suspension (100 μg of powder/[…]) was orally administered to male and female mice for one month. […]
The spatial reference memory of each mouse was evaluated using the Morris water maze test (Non-Patent Literature 34: Kelley Bromley-Brits et al., J. Vis. Exp., (2011), 53e2920). […] Each mouse was placed in the pool and allowed to swim for 60 seconds, and the time taken to reach the platform was measured (referred to as escape latency). […]

For the compound `O=C(/C=C/c1ccc(O)c(O)c1)O[C@@H]1C[C@](O)(C(=O)O)C[C@@H](O)[C@H]1O` [Chlorogenic acid, 5-O-caffeoylquinic acid], the “memory and motor function” value in test [1] is “improves their memory and motor function”. The “expression of BDNF and nerve growth factor (NGF)” value in test [2] was “promote the expression of BDNF and nerve growth factor (NGF)”.
For the compound catechin, the “memory (Morris water maze test)” value in test [3] was “showed a weaker effect than the polyphenol mixture”.
